How the values were obtained:
Format in all cases: cell-based
mouse PPARγ = molecular target: T1, mouse PPARγ (Mus musculus, UniProt P37238); assay: PPAR gamma transactivation (GAL4 chimeric receptor luciferase reporter) assay; settings: GAL4-mPPARγ chimeric receptor, pFR-Luc reporter, HEK293T cells, 20 hours incubation; read-out: Gene Activation Assay: EC50 (<10 μM) PPAR gamma
T1 construct: expressed in transfected cells; host or cells: HEK293T
T1 sequence (P37238 238-503 limits assumed): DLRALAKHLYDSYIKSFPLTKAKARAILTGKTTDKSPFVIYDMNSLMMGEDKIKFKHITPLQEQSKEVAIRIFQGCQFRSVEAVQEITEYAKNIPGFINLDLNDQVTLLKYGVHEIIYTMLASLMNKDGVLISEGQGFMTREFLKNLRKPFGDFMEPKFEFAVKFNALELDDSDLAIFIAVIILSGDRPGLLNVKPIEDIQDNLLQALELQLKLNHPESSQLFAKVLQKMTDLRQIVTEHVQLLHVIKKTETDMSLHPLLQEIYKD
Source text: (§1) Measurement of PPARγ, δ, and α Transactivation Activity.
(§2) Chimeric receptors were constructed in which the yeast transcription factor GAL4 DNA binding domain was fused to the ligand binding domain of either mouse PPARγ, mouse PPARδ or mouse PPAR α in order to assess the ability of the compounds of the present invention to activate gene expression in a PPAR-dependent manner. The chimeric receptor expression plasmids (GAL4-mPPARγ, GAL4-mPPAR δ and GAL4-PPAR α) and the reporter plasmid containing 5×GAL4 binding site (pFR-Luc, obtained from Stratagene) were transfected into HEK293T cells using the Lipofectamine 2000 reagent (Invitrogen), according to the manufacturers instructions. Six hours after transfection, the culture medium was renewed and the cells were incubated for 20 hours in presence of either 1) DMSO (vehicle), 2) a compound of the invention or 3) a reference compound for comparison. Rosiglitazone (obtained from WDF Pharma) was used as a reference compound for the PPARγassay; GW501516 (prepared as described in Sznaidman et al. Bioorg. Med. Chem. Lett. (2003) 13:1517-1521) was used as a reference compound for the PPAR δ assay and GW7647 (obtained from Sigma) was used as a reference compound for the PPAR α assay. Luciferase activity was measured as a reporter of gene expression. Luciferase activity on the cell lysates using the Steady-Glo reagent was measured according to the manufacturers instructions.

mouse PPAR α = molecular target: T2, mouse PPAR α (Mus musculus, UniProt P23204); assay: PPAR alpha transactivation (GAL4 chimeric receptor luciferase reporter) assay; settings: pFR-Luc reporter, HEK293T cells, 20 hours incubation, read-out: Gene Activation Assay: EC50 (<10 μM) PPAR alpha
T2 construct: expressed in transfected cells; host or cells: HEK293T
T2 sequence (P23204 239-466 limits assumed): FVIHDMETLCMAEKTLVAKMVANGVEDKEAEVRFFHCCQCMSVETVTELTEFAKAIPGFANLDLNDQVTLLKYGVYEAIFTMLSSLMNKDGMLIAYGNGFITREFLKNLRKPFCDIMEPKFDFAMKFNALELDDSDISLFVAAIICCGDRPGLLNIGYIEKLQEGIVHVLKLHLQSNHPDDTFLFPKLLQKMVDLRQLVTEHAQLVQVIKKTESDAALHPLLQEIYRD
Source text: as §1, §2

mouse PPARδ = molecular target: T3, mouse PPARδ (Mus musculus, UniProt P35396); assay: PPAR delta transactivation (GAL4 chimeric receptor luciferase reporter) assay; settings: GAL4-mPPAR δ chimeric receptor, pFR-Luc reporter, HEK293T cells, 20 hours incubation; read-out: Gene Activation Assay: EC50 (<10 μM) PPAR delta
T3 construct: expressed in transfected cells; host or cells: HEK293T
T3 sequence (P35396 210-438 limits assumed): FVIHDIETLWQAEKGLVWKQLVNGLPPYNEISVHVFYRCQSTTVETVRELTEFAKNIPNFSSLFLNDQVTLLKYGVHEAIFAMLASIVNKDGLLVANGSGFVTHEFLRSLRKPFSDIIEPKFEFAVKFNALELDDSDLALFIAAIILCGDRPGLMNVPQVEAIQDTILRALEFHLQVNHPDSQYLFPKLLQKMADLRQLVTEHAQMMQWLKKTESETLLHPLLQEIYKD
Source text: as §1, §2

Row | SMILES | EC50 (mouse PPARγ) [µM] | EC50 (mouse PPAR α) [µM] | EC50 (mouse PPARδ) [µM]
1 | Cc1nn(-c2ccc(C(F)(F)F)cc2)nc1COc1ccc2c(ccn2CC(=O)O)c1 [Compound 20, {5-[5-Methyl-2-(4-trifluoromethyl-phenyl)-2H-[1,2,3]triazol-4-ylmethoxy]-indol-1-yl}-acetic acid] | > 30 | > 10 | < 10
2 | Cc1nn(-c2ccc(C(F)(F)F)cc2)nc1COc1ccc2ccn(CC(=O)O)c2c1 [Compound 130, {6-[5-Methyl-2-(4-trifluoromethyl-phenyl)-2H-[1,2,3]triazol-4-ylmethoxy]-indol-1-yl}-acetic acid] | < 10 | < 10 | < 10
3 | Cc1nn(-c2ccc(C(F)(F)F)cc2)nc1COc1ccc2c(CC(=O)O)coc2c1 [Compound 160, {6-[5-Methyl-2-(4-trifluoromethyl-phenyl)-2H-[1,2,3]triazol-4-ylmethoxy]-benzofuran-3-yl}-acetic acid] | > 10 | > 10 | < 10
4 | Cc1nn(-c2ccc(C(F)(F)F)cc2)nc1COc1ccc2c(c1)OCC2CC(=O)O (stereo not drawn) [Compound 700, {6-[5-Methyl-2-(4-trifluoromethyl-phenyl)-2H-[1,2,3]triazol-4-ylmethoxy]-2,3-dihydro-benzofuran-3-yl}-acetic acid] | > 30 | > 10 | < 10

Reference: US20060014785A1, “BICYCLIC, SUBSTITUTED TRIAZOLES AS MODULATORS OF PPAR AND METHODS OF THEIR PREPARATION” (Metabolex, Inc., priority 2004, published 2006)
